Source: the NIST ThermoML archive (doi:10.1021/acs.jced.7b00750)

Assay: xn = mol fraction of the nth substance listed
Details: 100 kPa, Liquid, Vibrating tube method

CNC(N)=O [methylurea] + O
mass density [kg/m3]
Details | 283.15 K | 288.15 K | 298.15 K | 308.15 K | 323.15 K | 333.15 K
x1 = 0.00244 | – | 1000.82 | 998.69 | 995.62 | 989.55 | 984.67
x1 = 0.00291 | – | 1001.15 | 999 | 995.92 | 989.84 | 984.95
x1 = 0.00483 | – | 1002.51 | 1000.3 | 997.16 | 991.02 | 986.09
x1 = 0.00553 | – | 1003 | 1000.76 | 997.61 | 991.45 | 986.51
x1 = 0.00799 | 1005.48 | 1004.72 | 1002.41 | 999.19 | 992.95 | 987.96
x1 = 0.00834 | 1005.72 | 1004.96 | 1002.63 | 999.41 | 993.16 | 988.16
x1 = 0.01081 | 1007.48 | 1006.67 | 1004.26 | 1000.97 | 994.63 | 989.6
x1 = 0.01421 | 1009.88 | 1009.02 | 1006.48 | 1003.1 | 996.66 | 991.56
x1 = 0.01662 | – | 1010.63 | 1008.05 | 1004.61 | 998.09 | 992.96
x1 = 0.019 | – | 1012.22 | 1009.57 | 1006.07 | 999.47 | 994.26
x1 = 0.02321 | – | 1015 | 1012.2 | 1008.61 | 1001.87 | 996.6
x1 = 0.03185 | – | 1020.53 | 1017.45 | 1013.65 | 1006.67 | 1001.3
x1 = 0.04218 | – | 1026.9 | 1023.52 | 1019.45 | 1012.19 | 1006.7
x1 = 0.05184 | – | 1032.59 | 1028.96 | 1024.66 | 1017.13 | 1011.49
x1 = 0.06068 | – | 1037.58 | 1033.74 | 1029.26 | 1021.48 | 1015.72
x1 = 0.07071 | – | 1043.01 | 1038.96 | 1034.27 | 1026.24 | 1020.32
